Laboratory results reported in publication PMC7385433 (International Journal of Antimicrobial Agents, 2020).

Legend:
[1] = tested on: Burkholderia pseudomallei K96243; assay type: in vivo, BALB/c mice; conditions: for survival at 30 days post-infection: n = 5
[2] = tested on: gyrase and topoisomerase IV; conditions: cited from earlier work
[3] = not told; cited from earlier work
[4] = tested on: Burkholderia pseudomallei K96243; design: species or system Galleria mellonella; conditions: for larvae whose haemolymph was sterile of any bacteria / survival of Galleria larvae: in vivo
B. pseudomallei [5] = experiment: microbe, parasite or virus in culture; assay type: cell-based; conditions: Burkholderia pseudomallei, read-out: minimum inhibitory concentration (MIC)
in vivo = conditions: female, BALB/c, mouse, ip, 15 mg/kg
[6] = in vivo
B. pseudomallei [7] = conditions: ip; cited from earlier work

CC(C)(O/N=C(\C(=O)N[C@@H]1C(=O)N2C(C(=O)[O-])=C(C[n+]3ccccc3)CS[C@H]12)c1csc(N)n1)C(=O)O [ceftazidime]
B. pseudomallei present in lungs of surviving mice ([1]; mouse, in vivo): two of three | bacteria in spleen of surviving mice ([1]; mouse, in vivo): > 1 × 10^7 CFU | survival at 30 days post-infection [1]: 60%

CO[C@@H]1[C@@H](OC(=O)c2ccc(C)[nH]2)[C@@H](O)[C@H](Oc2ccc3c(O)c(NC(=O)c4ccc(O)c(CC=C(C)C)c4)c(=O)oc3c2Cl)OC1(C)C [clorobiocin]
potency as inhibitor of gyrase and topoisomerase IV relative to novobiocin [2]: more potent inhibitor | membrane permeability compared with novobiocin [3]: improved membrane permeability | bacterial load in haemolymph (killing activity in vivo) [4]: significantly reduced the bacterial load | larvae whose haemolymph was sterile of any bacteria [4]: 100% | survival of Galleria larvae [4]: all Galleria larvae survived

CO[C@@H]1[C@@H](OC(N)=O)[C@@H](O)[C@H](Oc2ccc3c(O)c(NC(=O)c4ccc(O)c(CC=C(C)C)c4)c(=O)oc3c2C)OC1(C)C [novobiocin]
MIC (B. pseudomallei [5]): < 10 µg/mL | AUC (in vivo): 33.2 µM·h | AUC(0-inf) (in vivo): 33.2 µM·h | AUC(0-t) (in vivo): 33.2 µM·h | Cmax (in vivo): 10.7 µM | Tmax (in vivo): 1 h | half-life (in vivo; t1/2): 168 min | bacterial load in haemolymph (killing activity in vivo) [4]: no significant killing activity | survival of Galleria larvae [4]: no larvae treated with novobiocin survived longer than 24 h post-infection | effect of DL-tryptophan on drug accumulation in tissue [6]: No significant effect on drug accumulation in adipose or haemolymphatic tissue

coumermycin
activity against multiple strains of B. pseudomallei in vivo (B. pseudomallei [7]): significant activity | units with complete organ sterility ([1]; mouse, in vivo): 40% | survival at 30 days post-infection [1]: 40% | bacterial load in haemolymph (killing activity in vivo) [4]: significantly reduced the bacterial load | larvae whose haemolymph was sterile of any bacteria [4]: 60% | survival of Galleria larvae [4]: all Galleria larvae survived
